# Measured values reported in patent US20180280364A1, “PHARMACEUTICAL COMPOSITIONS OF SODIUM PICOSULFATE, MAGNESIUM OXIDE AND CITRIC ACID” (Hetero Labs Limited, priority 2017, published 2018).
# Test: Compatibility study of sodium picosulfate with citric acid
# Assay type: physicochemical
# Settings: produced a wet mass with high known impurities
# Excerpt: As sodium picosulfate is having sensitivity towards an acidic nature ingredient, there is a need to formulate the composition of sodium picosulfate not in direct contact with the citric acid.
compound,measurement,value
O=S(=O)(O)Oc1ccc(C(c2ccc(OS(=O)(=O)O)cc2)c2ccccn2)cc1 [sodium picosulfate],Compatibility / stability with citric acid,not compatible or stable with citric acid physically and chemically
